Key:
CD34^+ cells [1] = test: Differentiative-phase culture (EPO and insulin, 5 additional days) of cells harvested from the proliferative phase, benzidine staining; assay type: cell-based, human; conditions: for frequency of benzidine^pos cells after differentiative phase: independent of priming duration (either 8 or 13 days) with GFs plus the steroid, then EPO and insulin
Protocol: Light-density cells and CD34^+ cells were cultured for the proliferative phase in Iscove's modified Dulbecco's medium (IMDM, Mascia Brunelli, Milan, Italy) containing 20% of fetal bovine serum (FBS, Hyclone, Logan, Utah) and supplemented with Stem Cell Factor (SCF, 10 ng/mL) (Amgen, Thousand Oaks, Calif.), Erythropoietin (EPO, 1 u/mL) (Epoetina alfa, Dompe Biotec, Milan, Italy), Interleukin-3 (IL-3, 1 ng/mL) (Bouty, Milan, Italy), dexamethasone (10^−6 M) (Sigma), and estradiol (10^−6 M) (Sigma). Light-density and CD34^+ cells were seeded at a concentration of 10^6 and 10^5 cells/mL, respectively.
(§1) Cell morphology was analyzed according to standard criteria on cytocentrifuged (Shandon, Astmoor, England) smears stained with May-Grumwald-Giemsa. Hemoglobin-containing cells were identified by benzidine staining (S. H. Orkin, Proc. Natl. Acad. Sci. USA 72, 98-102 (1975)). The cell antigenic profile was analyzed by flow cytometry with a Coulter Elite ESP Cell Sorter (Coulter, Miami, Fla.) according to standard protocols. […] Cells incubated with the corresponding, irrelevant, isotype-matched antibodies were used for gating nonspecific fluorescence and dead cells were excluded by propidium iodide staining (5 μg/mL) (Sigma).
The total cell number observed in cultures of CD34^+ cells cultured for up to 14 days in the presence of the combination of SCF, IL-3 and EPO (growth factors, GFs), alone or with the further addition of estradiol or of dexamethasone, is presented in FIG. 1. In all three conditions analyzed, the total cell number per culture rose from 0.1×10^6 cells at day 0 to 10×10^6 at day 7 and continued to increase, reaching up to 100×10^6 by day 13. […] The total number of erythroid cells obtained at the end of the proliferative-plus-differentiative phase can be calculated by multiplying the total number of cells presented in FIG. 1 by the frequency of benzidinepos cells presented in FIG. 2. […]

CD34^+ cells [2] = test: Proliferative-phase liquid culture of CD34+ cells (total cell number, benzidine staining); assay type: cell-based, human; conditions: day 8 of proliferative phase; estradiol or dexamethasone added to GFs (SCF, IL-3, EPO)
Protocol: Light-density cells were collected, washed with Hank's basal salt solution supplemented with 1% (w/v) bovine serum albumin, and either cultured directly or cryopreserved in 10% dimethyl sulfoxide (Sigma, St. Louis, Mo.). Frozen cadaveric marrow cells obtained from Northwest Tissue Center, Puget Sound Blood Bank (Seattle, Wash.) were thawed, washed, and incubated overnight in IMDM with 10% fetal calf serum on tissue culture plates to remove adherent cells. […]
as §1, with “Hemoglobin-containing cells were identified by benzidine staining (S. H. Orkin, Proc. Natl. Acad. Sci. USA 72, 98-102 (1975)).” left out
The total cell number observed in cultures of CD34^+ cells cultured for up to 14 days in the presence of the combination of SCF, IL-3 and EPO (growth factors, GFs), alone or with the further addition of estradiol or of dexamethasone, is presented in FIG. 1. In all three conditions analyzed, the total cell number per culture rose from 0.1×10^6 cells at day 0 to 10×10^6 at day 7 and continued to increase, reaching up to 100×10^6 by day 13. […]

Compound	total number of erythroid cells obtained at end of proliferative-plus-differentiative phase (CD34^+ cells [1]; differentiation started at day 8 of proliferative phase, total cell number multiplied by benzidine^pos frequency)	frequency of benzidine^pos cells after differentiative phase (CD34^+ cells [1])	percent of benzidine positive cells (mature erythroid cells) (CD34^+ cells [2]) [%]
C[C@@H]1C[C@H]2[C@@H]3CCC4=CC(=O)C=C[C@]4(C)[C@@]3(F)[C@@H](O)C[C@]2(C)[C@@]1(O)C(=O)CO [dexamethasone]	≤ 7×10^6 erythroid cells	80-95%	< 10
C[C@]12CC[C@@H]3c4ccc(O)cc4CC[C@H]3[C@@H]1CC[C@@H]2O [estradiol]		40-60%	
